Data reported in PubChem BioAssay AID1996.
Converted amounts (≈) assume the structure as drawn.

Conditions: buffer; pH 7.4; 200.0 µM

Structure (SMILES) | solubility kinetic
Cn1c(SCC(=O)Nc2ccc(Cl)cc2)nc(O)cc1=O | > 48.9 µg/mL
CN1CCN(C(=S)Nc2ccc(S(N)(=O)=O)cc2)CC1 | > 47.2 µg/mL
CC(C)(C)C(=O)O/N=C(\N)c1ccc([N+](=O)[O-])s1 | 8.2 µg/mL (≈ 30.2 µM)
Cc1cc(N(C)Cc2ccccc2)nc2cc(O)ccc12 | 30.5 µg/mL (≈ 110 µM)
O=C(CSC(=S)N1CCSCC1)c1ccc(Cl)cc1 | < 0.7 µg/mL
Cn1c(C(=O)N[C@@H](C(=O)O)c2ccccc2)cc2cc(Cl)ccc21 | > 51.4 µg/mL
CN(Cc1ccccc1)C(=O)c1ccc(COc2ccccc2)cc1 | 4.5 µg/mL (≈ 13.6 µM)
O=C(CCl)Nc1ncc(S(=O)(=O)c2ccc([N+](=O)[O-])cc2)s1 | > 54.3 µg/mL
C=CCn1c(C(CC)CC)nc2ccccc21 | 27.9 µg/mL (≈ 122 µM)
CCn1c(C)nnc1SCC(=O)Nc1ccc(C(C)=O)cc1 | > 47.8 µg/mL
O=[N+]([O-])c1ccc(-c2cn(-c3ccccc3F)c(=S)[nH]2)cc1 | 0.6 µg/mL (≈ 1.9 µM)
O=C(CCc1ccccc1)NCCc1nc2ccccc2[nH]1 | > 44 µg/mL
COc1ccc([N+](=O)[O-])cc1NC(=O)Cc1noc2ccccc12 | 0.3 µg/mL (≈ 0.917 µM)
O=C(Nc1ccc(S(=O)(=O)Nc2ccccn2)cc1)C(F)(F)F | > 51.8 µg/mL
CC(=O)Nc1ccc(N2C(=O)CSC2c2ccccc2[N+](=O)[O-])cc1 (centres undefined) | 41.1 µg/mL (≈ 115 µM)
COC(=O)c1cc(-c2cccc(OC)c2)c2c(=O)[nH]c(=O)n(C)c2n1 | 3.4 µg/mL (≈ 9.96 µM)
Cn1cnc(S(=O)(=O)N2CCN(c3ccc(F)cc3)CC2)c1 | > 48.7 µg/mL
O=C(Cn1ccccc1=O)NCc1ccc(F)cc1 | 24.1 µg/mL (≈ 92.6 µM)
Cc1ccc(C(=O)Nc2ncc(C)s2)s1 | 7.1 µg/mL (≈ 29.8 µM)

Structure (SMILES) | solubility kinetic
CCOC(=O)CSc1nnc(-c2cccnc2)n1C | > 41.7 µg/mL
CCC(C)NC(=O)c1ccc2c(Cl)c3c(nc2c1)CCC3 (centres undefined) | 9.9 µg/mL (≈ 32.7 µM)
O=c1cc(COc2ccc(Cl)c(Cl)c2)nc2sccn12 | 1.1 µg/mL (≈ 3.36 µM)
COC(=O)c1ccc(Oc2nc(NC(C)C)nc(NC(C)C)n2)cc1 | 1.4 µg/mL (≈ 4.05 µM)
CN(Cc1ccccc1)C(NC(=O)c1ccco1)C(Cl)(Cl)Cl (centres undefined) | 28.2 µg/mL (≈ 78 µM)
CN(CC(=O)Nc1cccc(F)c1)C(=O)c1sc2ccccc2c1Cl | 23 µg/mL (≈ 61 µM)
Clc1ccc(OCC#CCN2CCOCC2)cc1.O=C(O)C(=O)O | 50.3 µg/mL
O=C1CN(C(=O)COc2ccc(F)cc2Cl)c2ccccc2N1 | > 50.2 µg/mL
COC(=O)c1ccc(COC(=O)c2cccn2C)o1 | 27.1 µg/mL (≈ 103 µM)
Cc1c(C(=O)N2CCN(S(=O)(=O)c3cccs3)CC2)oc2ccc(F)cc12 | 13.6 µg/mL (≈ 33.3 µM)
CC(=O)c1cccc(NC(=O)CN2C(=O)c3ccccc3C2=O)c1 | 13.9 µg/mL (≈ 43.1 µM)
O=C(O)C1CCC(N2C(=O)C3C4CCC(C4)C3C2=O)CC1 (centres undefined) | > 43.7 µg/mL
O=C(Cc1ccccc1[N+](=O)[O-])Nc1nccs1 | 7.3 µg/mL (≈ 27.7 µM)
CCOn1c(=O)c(-c2ccc(C)cc2)[n+]([O-])c2ccccc21 | 33.5 µg/mL (≈ 113 µM)
O=C(CSc1ccccn1)Nc1ccc(F)c([N+](=O)[O-])c1 | 43.5 µg/mL (≈ 142 µM)
CN(CC(O)CN1CCOCC1)S(=O)(=O)[O-].[Na+] (centres undefined) | > 41.4 µg/mL
COc1ccccc1CNCc1cc(=O)oc2c(C)c(C)ccc12 | 3.6 µg/mL (≈ 11.1 µM)
CC(CCc1ccccc1)NC(=O)CC(C)c1ccccc1 (centres undefined) | 43.4 µg/mL (≈ 147 µM)

Next, values leading:

solubility kinetic | Structure (SMILES)
37.7 µg/mL (≈ 138 µM) | CC(C)CNC(=O)CCc1nc(-c2ccccc2)no1
50.4 µg/mL (≈ 150 µM) | O=C(C1CCN(S(=O)(=O)c2ccccc2)CC1)N1CCCCC1
38.8 µg/mL (≈ 128 µM) | CCOc1ccc(Cl)cc1S(=O)(=O)NC1CCCC1
12.3 µg/mL (≈ 50 µM) | Cc1ccc(Oc2ncnc(N)c2[N+](=O)[O-])cc1
3 µg/mL (≈ 10.5 µM) | COc1ccc(Cl)cc1NC(=S)NC1CCCC1
< 0.7 µg/mL | COc1cccc2cc(C(=O)NCc3ccc(C)cc3)c(=O)oc12
52.9 µg/mL (≈ 138 µM) | Cc1ccc(C(CC(=O)NCCCN(C)C)c2ccc(OC(C)C)cc2)cc1 (centres undefined)
14.1 µg/mL (≈ 51.2 µM) | Cc1cccc(OCCCC(=O)NC2CCCCC2)c1
9.9 µg/mL (≈ 33.5 µM) | Cc1ccc(C)c(S(=O)(=O)N(C)Cc2cccs2)c1
> 52 µg/mL | CS(=O)(=O)N(CC(=O)Nc1ccc(F)cc1F)C1CCCCC1
0.8 µg/mL (≈ 2.3 µM) | COc1cccc(NC(=O)Cn2cc(C(=O)C3CC3)c3ccccc32)c1
26.5 µg/mL (≈ 88.5 µM) | COc1cc(S(=O)(=O)NC2CCCC2)c(OC)cc1C
44.1 µg/mL (≈ 135 µM) | CC(=O)c1cc(F)ccc1OCC(=O)N1CCCc2ccccc21
> 48.7 µg/mL | CCCN1CCN(CCNC(=O)Nc2ccccc2Cl)CC1
> 48.5 µg/mL | CC(=O)N1CCCC(C(=O)c2ccc(Oc3ccccc3)cc2)C1 (centres undefined)
> 44.8 µg/mL | Cn1nccc1C(=O)NC1CCN(Cc2ccccc2)CC1
< 0.6 µg/mL | O=C(COc1ccccc1)Nc1cc(Cl)ccc1Cl
3.1 µg/mL (≈ 9.92 µM) | Cc1ccc(NC(=O)COCC(=O)Nc2ccc(C)cc2)cc1
> 43.4 µg/mL | O=C(COC(=O)C1CC2C=CC1C2)Nc1ccccc1F (centres undefined)
52.1 µg/mL (≈ 146 µM) | CCOC(=O)C1CCN(C(=O)Nc2c(-c3ccccc3)noc2C)CC1
16.7 µg/mL (≈ 50.9 µM) | Cc1ccnc(N2CCC(C(=O)NCc3ccc(F)cc3)CC2)n1
2.8 µg/mL (≈ 8.63 µM) | O=C(Nc1ccc(C(=O)OC2CCCCC2)cc1)c1ccncc1
